According to patent EP4732839A1, “USE OF COMPOUND IN TREATMENT OF LIVER DISEASES” (priority 2023, dated 2025):
In brackets after ≈: the same amount, converted by molar mass. Several values for one entry are separate records, joined by “and”; a condition that tells them apart may be missing. Identical values can stand only once.

Columns and labels:
[1] = test system: IFN-α, IP-10, IL-6, and TNF-α; assay: Liver safety: cytokine ELISA in liver tissue; type: in vivo, C57BL/6J wild-type female mice
Experimental: (§1) C57BL/6J wild-type female mice (6 weeks old) were randomly grouped. After administration at different doses, whole blood and liver tissues of the mice were separately collected at 1 h, 2 h, and 4 h for detection of a plurality of parameters to evaluate the effect of the drugs on the liver.
(§2) Liver tissues and blood were collected at 1 h, 2 h, and 4 h after single dosing.
(§3) The supernatant was collected and stored (-20 °C); • (3) IFN-α, IP-10, IL-6, and TNF-α were detected using an ELISA kit. • (C) Remaining liver tissue-HE staining and pathological evaluation. • (D) 1/2 blood (whole blood)-liver function parameter detection: AST (aspartate aminotransferase), ALT (alanine aminotransferase/glutamate pyruvate transaminase), ALP (alkaline phosphatase), ALB (albumin), and GGT (γ-glutamyl transferase). • (E) 1/2 blood-serum preparation-reserve for ELISA.

[2] = test system: ISG15, ISG56, Mx1, and Oaslb; assay: Liver safety: qPCR of interferon-related genes in liver tissue; type: in vivo, C57BL/6J wild-type female mice
Experimental: as §1, §2, §3

[3] = type: in vivo, C57BL/6J wild-type female mice
Experimental: as §1, §2, §3

[4] = 3/10/20 mpk i.g., livers collected 1 h, 2 h, 4 h post-dose
Experimental: as §1, §2, §3

[5] = test system: hepatitis B virus (HBV); assay: Anti-hepatitis B virus activity in HBV-infected primary human hepatocytes; type: cell-based, HBV type B; settings: HBV-infected PHHs
Experimental: The culture supernatant from one donor (donor 1) was selected to stimulate HBV-infected primary hepatocytes (PHHs), and interferon α and nucleoside analog entecavir (ETV) were selected as positive controls. The experimental procedures were as follows (FIG. 14a), and the detailed procedures were as follows: On day -1, cryopreserved PHHs were thawed and adjusted to a density of 6 × 10^5 cells/mL, and the PHHs were seeded into a 48-well plate at 0.22 mL/well.
On day 0, the PHHs were infected with HBV type B at 600 GE/cells.
On day 1, the culture medium was replaced with a fresh one, and reference compounds ETV and Peg-IFN-α2a (Pegasys-Roche) were added to the cells to treat the cells. The reference compounds ETV and Peg-IFN-α2a for the PHHs were each prepared at one concentration, with three replicate wells.
The PBMC supernatants were each prepared at 4 test concentrations, diluted at a ratio of 1:4, and then added to the cells. Three replicate wells were made for each test condition. The culture medium was replaced with a fresh culture medium containing the PBMC supernatants and the reference compounds on days 5, 7, 9, and 11. On day 13, the cell supernatants were collected and the cell viability was detected using CCK-8.
The content of HBV DNA in the supernatants was determined by qPCR according to the kit instructions. HBsAg and HBeAg levels in the supernatants were determined by ELISA.

[6] = test system: Hep3B-luc; assay: Hep3B-luc liver orthotopic xenograft mouse model; settings: Hep3B-luc liver orthotopic tumor model, 3 mg/kg
[7] = test system: MC38-luc
[8] = molecular target: hERG potassium channel (Homo sapiens, UniProt Q12809); assay: hERG whole-cell patch-clamp; type: cell-based; settings: whole-cell patch-clamp; read-out: hERG (IC50)
Text: The rapidly activated potassium channel encoded by human ether-a-go-go-related gene (hERG) is an important ion channel involved in the formation of cardiac action potential phase 3 repolarization. Drug-induced blockade of hERG channels can lead to delayed cardiac repolarization, manifested as QT interval prolongation on the electrocardiogram, known as long QT syndrome. Drug-induced delayed ventricular repolarization may, under certain circumstances, trigger fatal arrhythmias-torsade de pointes-type ventricular tachycardia. In this study, the whole-cell patch-clamp technique (the standard method for hERG safety assessment) was employed to evaluate the inhibitory effects of the small-molecule compounds on the hERG potassium channel and to assess the risk of ventricular repolarization toxicity.

[9] = test system: H22-luc; settings: H22-luc orthotopic model, 3 mpk, IG, QW × 3, BLI 21 days post-dose, P < 0.0001
Experimental: The cells were placed in an incubator at 37 °C with 5% CO2 and passaged every 1 to 2 days depending on the cell density.
The cell concentration (H22-luc, 2.0E8/mL) was adjusted, and the cells were mixed well with Matrigel at a ratio of 1:1. The mixture was placed on ice for subsequent injection experiments, and was mixed thoroughly by shaking with Vortex before use.
• (1) The mice were weighed before surgery and anesthetized by intraperitoneal injection of avertin at 0.15 mL/10 g body weight. […] The needle was inserted into the liver at a 30-degree angle relative to the liver surface. After the needle was inserted, the needle was made parallel to the tabletop and advanced in parallel for about 3 mm. 10 µL of H22-luc cell suspension was slowly injected, and a rapid whitening (white plaque) or turbid translucent vacuolation over most of the liver lobe in the injection area was observed. • (5) After injection, a cotton swab was used to apply slight pressure at the needle insertion site while the needle was slowly withdrawn. The cotton swab was removed until no bleeding was observed. • (6) The liver lobe was gently pushed back into the abdominal cavity, and the muscle layer and skin were sutured.
The experimental data were analyzed using Graphpad Prism 8. The experimental data were expressed as mean ± SD.

[10] = physchem; settings: phosphate buffer, pH 7.4, aqueous buffer
[11] = in vitro; settings: human, microsomes, pH 7.4
Experimental: (§4) The metabolic stability of the compounds in in vitro liver microsomes was evaluated. The procedures and steps were as follows: At 37 °C, 1 µM of the compounds was incubated in 1 mg/mL liver microsomes. The reaction system was a 0.1 M potassium phosphate buffer (pH 7.4) containing 3 mmol/L MgCl2 and 1 mmol/L NADPH. At the beginning of the reaction, the small molecules and the liver microsomes were pre-incubated at 37 °C for 10 min, and subsequently a cofactor NADPH was added to initiate the metabolic reaction. The reaction was quenched at 0 min, 5 min, 10 min, 20 min, 30 min, and 60 min using three volumes of ice-cold methanol containing an internal standard (200 nM labetalol). After incubation at room temperature for 10 min, the samples were centrifuged at 4000 rpm at 4 °C for 20 min, and the supernatants were collected, diluted with chromatography-grade purified water in a 1:1 ratio, and then subjected to quantitative analysis. […] After a 6-minute chromatographic separation on a C18 column (50 × 2.1 mm; 2.6 µm) under a gradient mobile phase of 0.1% formic acid in water, the peaks corresponding to specified ionic signals were detected. […] The detailed operation process was as follows: • 1) The compound working solution was added to all 96-well reaction plates (T0, T5, T10, T20, T30, and T60) at 10 µL/well, except the blank wells. • 2) The microsomal solution was added to all the reaction wells (T0, T5, T10, T20, T30, T60, and blank wells) at 80 µL/well. • 3) The plates were pre-incubated at 37 °C for 10 min. • 4) After pre-incubation, NADPH was added to each reaction plate at 10 µL/well to initiate the reaction. • 5) At the set end time point, a 4 °C methanol solution (containing an internal standard: 200 nM labetalol) was added to each reaction plate at 300 µL/well to quench the reaction. • 6) Each plate was sealed and shaken for 10 min. • 7) The mixture was shaken well and centrifuged at 4000 rpm at 4 °C for 20 min. • 8) 300 µL of the supernatant was collected, and HPLC-grade water was added at 300 µL/well. The mixture was well mixed and then subjected to LC-MS analysis.
(§5) The metabolic half-life (T1/2) and the metabolic clearance rate (CLint(mic)) (µL/min/mg) were calculated using a first-order kinetic equation.

[12] = Solubility in phosphate buffer at pH 7.4
[13] = Liver microsome metabolic stability (human); settings: Human liver microsomes, 1 µM compound, 1 mg/mL, NADPH, 37 °C
Experimental: as §4, §5

[14] = Liver microsome metabolic stability (murine); settings: Murine liver microsomes, 1 µM compound, 1 mg/mL, NADPH, 37 °C
Experimental: The metabolic stability of the compounds in in vitro liver microsomes was evaluated. The procedures and steps were as follows: At 37 °C, 1 µM of the compounds was incubated in 1 mg/mL liver microsomes. The reaction system was a 0.1 M potassium phosphate buffer (pH 7.4) containing 3 mmol/L MgCl2 and 1 mmol/L NADPH. At the beginning of the reaction, the small molecules and the liver microsomes were pre-incubated at 37 °C for 10 min, and subsequently a cofactor NADPH was added to initiate the metabolic reaction. The reaction was quenched at 0 min, 5 min, 10 min, 20 min, 30 min, and 60 min using three volumes of ice-cold methanol containing an internal standard (200 nM labetalol). After incubation at room temperature for 10 min, the samples were centrifuged at 4000 rpm at 4 °C for 20 min, and the supernatants were collected, diluted with chromatography-grade purified water in a 1:1 ratio, and then subjected to quantitative analysis. […] After a 6-minute chromatographic separation on a C18 column (50 × 2.1 mm; 2.6 µm) under a gradient mobile phase of 0.1% formic acid in water, the peaks corresponding to specified ionic signals were detected. […]
as §5

[15] = test system: Peripheral blood mononuclear cells (hPBMCs); assay: Cytokine secretion after stimulation of PBMCs; settings: hPBMCs from 3 donors, 24 h of stimulation

hERG potassium channel, sequence (Q12809 whole entry): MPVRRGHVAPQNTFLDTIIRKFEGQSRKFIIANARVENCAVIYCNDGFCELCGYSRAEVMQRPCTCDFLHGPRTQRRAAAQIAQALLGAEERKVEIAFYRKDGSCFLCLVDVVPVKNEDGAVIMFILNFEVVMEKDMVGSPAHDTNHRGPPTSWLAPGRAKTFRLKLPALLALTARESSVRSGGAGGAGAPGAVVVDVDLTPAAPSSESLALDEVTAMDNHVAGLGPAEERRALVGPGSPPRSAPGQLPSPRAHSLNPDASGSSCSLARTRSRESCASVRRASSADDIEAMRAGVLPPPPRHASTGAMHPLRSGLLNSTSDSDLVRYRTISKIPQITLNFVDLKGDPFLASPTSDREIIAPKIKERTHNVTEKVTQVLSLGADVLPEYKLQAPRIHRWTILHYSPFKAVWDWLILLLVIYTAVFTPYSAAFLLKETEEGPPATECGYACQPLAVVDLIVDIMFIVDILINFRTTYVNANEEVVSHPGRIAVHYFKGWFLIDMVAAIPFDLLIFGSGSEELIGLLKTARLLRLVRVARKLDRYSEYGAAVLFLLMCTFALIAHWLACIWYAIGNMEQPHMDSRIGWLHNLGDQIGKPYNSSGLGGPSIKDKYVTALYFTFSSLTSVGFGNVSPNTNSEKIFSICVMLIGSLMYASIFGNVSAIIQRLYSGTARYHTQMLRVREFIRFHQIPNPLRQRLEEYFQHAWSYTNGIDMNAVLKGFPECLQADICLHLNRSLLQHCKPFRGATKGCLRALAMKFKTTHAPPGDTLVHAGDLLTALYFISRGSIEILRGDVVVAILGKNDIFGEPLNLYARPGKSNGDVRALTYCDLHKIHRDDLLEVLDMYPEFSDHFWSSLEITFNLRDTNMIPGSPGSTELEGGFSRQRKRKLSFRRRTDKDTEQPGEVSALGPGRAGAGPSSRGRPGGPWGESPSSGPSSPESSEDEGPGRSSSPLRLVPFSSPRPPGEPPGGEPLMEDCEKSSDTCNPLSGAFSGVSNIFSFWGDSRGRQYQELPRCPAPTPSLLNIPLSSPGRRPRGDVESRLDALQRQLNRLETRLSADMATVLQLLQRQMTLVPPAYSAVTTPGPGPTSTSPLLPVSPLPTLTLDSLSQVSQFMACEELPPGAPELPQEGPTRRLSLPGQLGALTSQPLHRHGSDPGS

In the case of `COCCNc1nc(N)nc2ccc(Cc3ccc(CN4CCOCC4)cc3)nc12` [Compound II], the “expression levels of IL-6, TNF-α, IFN-α, and IP-10” value ([1]; 3/10/20 mpk groups i.g. single dose, 1 h, 2 h, 4 h) is reported as “all peaked at 2 h, and decreased at 4 h”, the “IP-10 (CXCL-10) secretion” value ([1]; i.g. single dose) is reported as “significantly induced” and the “relative expression levels of ISG15, ISG56, Mx1, and oas1b” value ([2]; 3/10/20 mpk i.g. single dose, 1 h to 4 h) is reported as “increased over time, and peaked at 4 h”. For the same compound, the “mRNA expression level of interferon-related genes” value ([2]; dose of 3 mpk (pharmacodynamic dose)) was “significantly induced an increase”, the AST levels ([3]; all administration groups, no statistically significant differences) was “exceeded the normal reference range” and the ALP levels ([3]; all dose groups) was “within the normal reference value range”. The GGT levels ([3]; all dose groups) was “significantly lower than that of the control group”, the ALB level ([3]; at 2 h and 4 h) was “significantly lower than that of the control group” and the “ALT elevation by clinical adverse reaction grading” value ([3]; single administration, Grade 1 AE = ALT exceeding three times the normal value) was “did not result in ALT elevation to grade 1 AE”. For the same compound, the ALT ([3]; whole blood, 3/10/20 mpk i.g. single dose, 1 h, 2 h, 4 h) was “increased in all groups”, the “Liver HE staining” value [4] was “did not cause apparent pathological damage to the liver tissues” and the “activity for inhibiting HBV DNA compared with Peg-IFN-α2a (100 IU/mL)” value ([5]; PBMC supernatant (donor 1)) was “comparable”. For the same compound, the “activity for reducing hepatitis B surface antigen compared with Peg-IFN-α2a (100 IU/mL)” value ([5]; PBMC supernatant (donor 1)) was “slightly stronger”, the “anti-HBV activity compared with GS-9688” value ([5]; PBMC supernatant (donor 1)) was “significantly stronger” and the “levels of surface antigens HBeAg and HBsAg” value ([5]; agonist-treated PBMC supernatant (donor 1) or reference compound, supernatant ELISA day 13) was “significantly reduced”. For the same compound, the “level of HBV DNA” value ([5]; agonist-treated PBMC supernatant (donor 1) or reference compound, supernatant qPCR day 13) was “significantly reduced”, the “maximum body weight loss” value [6] was 5.4% and the TGI ([6]; IG, QW × 3, p < 0.05) was 61.6%. The “maximum body weight loss rate” value ([7]; MC38-luc liver metastasis model, compound II 3 mpk IG QW × 3, PD-1 10 mpk IP BIW × 2) was 3.9%, the TGI ([7]; MC38-luc liver metastasis model, compound II 3 mpk IG QW × 3, PD-1 10 mpk IP BIW × 2, 17 days post-dose) was 63.3% and the “CD8+ T cells in peripheral lymph nodes” value ([7]; flow cytometry, compared with vehicle group) was “no significant difference”. For the same compound, the “Kuffer cells in the liver tissue” value ([7]; flow cytometry, compared with vehicle group and PD-1 antibody group) was “significantly induced an increase”, the IC50 [8] was 4.3 µM and > 10 µM and the TGI [9] was 83.4%. The solubility [10] was 1010 µM (≈ 413 µg/mL), the half-life at 1 µM [11] was 35.1 min and the microsomal CLint at 1 µM [11] was 39.5 µL/min/mg. The “solubility improvement compared with N01(D18)” value [12] was “about 10 fold”, the k [13] was 0.0197 L/min and the k [14] was 0.0460 L/min. For the same compound, the IFN-α stimulating activity [15] was “strong” and the “IFN-α, IFN-γ, and IL-1240 secretion” value ([15]; 4 concentrations, compared with GS-9688) was “significantly stronger activity and magnitude”.
